What was measured:
Assay type in all cases: in vivo, human
[1] = test system: CD3 cells in peripheral blood; test: Flow cytometry of peripheral blood, CD3 lymphocytes; USB003 SC once daily for 7 days in healthy men; parameters: key to Subjects with shift, Absolute CD3, N-L (normal to low) / Subjects with shift, Absolute CD3, N-H (normal to high) / Subjects with shift, Absolute CD3, L-N (low to normal) / Subjects with shift, Absolute CD3, H-N (high to normal): — signifies subject with no shift from baseline; conditions: for CD3, Absolute, Mean at Baseline: Baseline (Day 1)
Protocol: (§1) • Single-center, randomized, double-blind, placebo-controlled, 2 cohort dose-escalation trial of once daily dosing over a 7-day period (7 doses total): • Cohort 1: 2 subjects treated with placebo and 8 subjects treated with 200 μg/kg USB003 (A(1-7)) • Cohort 2: 2 subjects treated with placebo and 8 subjects treated with 300 μg/kg USB003 • For each cohort, there was a Screening Period, Treatment Phase, Follow-up Period, and Study Termination or Early Withdrawal Day. Subjects were confined to the study unit during the Treatment Phase. • Cohort 2 was treated approximately 1 week after completion of the Treatment Phase for Cohort 1 to allow time for the assessment of safety and tolerability in the first cohort.
(§2) Pharmacological Effect: The following evaluations (under efficacy and safety in the protocol) were performed: • Effects on the number of mature blood cells: • 1. CBC (with differential), platelet count, reticulocyte count. • Effects on early hematopoietic progenitor cells and mature lymphocyte subsets in the periphery: • 1. Flow cytometry to evaluate frequency of peripheral blood progenitor cells (eg, CD34^+) and lymphocyte subsets (eg, CD3, CD4, CD8) in peripheral blood. • 2. Collection of blood for later possible culture for progenitor cells (eg, colony forming units-granulocyte/macrophage [CFU-GM]) to evaluate potential effects on CD34^+ hematopoietic progenitor cells in peripheral blood. • 3.
(§3) The effect of USB003 on the number of mature blood cells was assessed by the complete blood count with differential, platelet and reticulocyte counts. The effects on early hematopoietic progenitor cells and mature lymphocyte subsets in the periphery were assessed by flow cytometry. In addition, blood was collected and processed to enable culture of progenitors at a later time.
(§4) Red blood cell (RBC) count, RBC indices, white blood cell count (WBC) with differential, reticulocyte count, platelet count, hemoglobin (Hb), hematocrit (Hct), plasma hemoglobin, peripheral flow cytometry, including CD34^+, flow cytometry for enumeration of CD3, CD4, and CD8 lymphocytes, and culture for progenitor cells in peripheral blood including colony-forming units-granulocyte/macrophage (CFU-GM).

[2] = test system: CD8 cells in peripheral blood; test: Flow cytometry of peripheral blood, CD8 lymphocytes; USB003 SC once daily for 7 days in healthy men; parameters: key to Subjects with shift, Absolute CD8, N-L (normal to low) / Subjects with shift, Absolute CD8, L-N (low to normal) / Subjects with shift, Absolute CD8, H-N (high to normal) / Subjects with shift, Absolute CD8, N-H (normal to high): — signifies subject with no shift from baseline; conditions: for CD8, Absolute, Mean at Baseline: Baseline (Day 1)
Protocol: as §1, §2, §3, §4

[3] = 12-lead electrocardiogram in healthy men; conditions: Screening or Study Day 8
From the text: Safety assessments during the study period included vital sign measurement (systolic [SBP] and diastolic [DBP] blood pressure, heart rate [HR], respiratory rate [RR] in the sitting position, and oral temperature), clinical chemistry, hematology, urinalysis, 12-lead electrocardiogram (ECG) in the supine position, and AE monitoring. Clinical chemistry/hematology samples were drawn within a 30-minute period prior to dosing on selected dosing days.

Question: For Asp-Arg-Val-Tyr-Ile-His-Pro [USB003], which “CD3, Absolute, Mean at Baseline” value ([1]; 200 μg/kg) is on record?
Answer: 1732.3 cells/μL

Question: And the “Subjects with shift, Absolute CD3, H-N (high to normal)” value (“Subjects with shift, Absolute CD3, H-N” below) ([1]; 200 μg/kg, Baseline to Day 8)?
Answer: 1

Question: What about the “Subjects with shift, Absolute CD3, L-N (low to normal)” value ([1]; 200 μg/kg, Baseline to Day 8) of the same substance?
Answer: —

Question: What about the “Subjects with shift, Absolute CD3, N-H (normal to high)” value (from here on “Subjects with shift, Absolute CD3, N-H”) ([1]; 200 μg/kg, Baseline to Day 8) of the same substance?
Answer: —

Question: And the “Subjects with shift, Absolute CD3, N-L (normal to low)” value ([1]; 200 μg/kg, Baseline to Day 8)?
Answer: —

Question: And the “Subjects with shift, Absolute CD3, H-N” value ([1]; 200 μg/kg, Baseline to Day 20)?
Answer: 1

Question: And the “Subjects with shift, Absolute CD3, L-N (low to normal)” value ([1]; 200 μg/kg, Baseline to Day 20)?
Answer: —

Question: And the “Subjects with shift, Absolute CD3, N-H” value ([1]; 200 μg/kg, Baseline to Day 20)?
Answer: —

Question: And the “Subjects with shift, Absolute CD3, N-L (normal to low)” value ([1]; 200 μg/kg, Baseline to Day 20)?
Answer: —

Question: And the “CD3, Absolute, Mean Change from Baseline” value ([1]; 200 μg/kg, Day 3)?
Answer: −115.8 cells/μL

Question: And the “CD3, Absolute, Mean Change from Baseline” value ([1]; 200 μg/kg, Day 5)?
Answer: 70.6 cells/μL

Question: And the “CD3, Absolute, Mean Change from Baseline” value ([1]; 200 μg/kg, Day 7)?
Answer: 53.9 cells/μL

Question: And the “CD3, Absolute, Mean Change from Baseline” value ([1]; 200 μg/kg, Day 8)?
Answer: −32.0 cells/μL

Question: What about the “CD3, Absolute, Mean Change from Baseline” value ([1]; 200 μg/kg, Day 11) of the same substance?
Answer: 122.0 cells/μL

Question: What about the “CD3, Absolute, Mean Change from Baseline” value ([1]; 200 μg/kg, Day 14) of the same substance?
Answer: 60.0 cells/μL

Question: What about the “CD3, Absolute, Mean Change from Baseline” value ([1]; 200 μg/kg, Day 17) of the same substance?
Answer: −121.1 cells/μL

Question: What about the “CD3, Absolute, Mean Change from Baseline” value ([1]; 200 μg/kg, Day 20) of the same substance?
Answer: −63.6 cells/μL

Question: What about the “increase in CD3 (pan T cell marker) during study drug administration” value ([1]; 300 μg/kg/day, rapidly diminished after cessation of treatment) of the same substance?
Answer: 15-20%

Question: And the “CD3, Absolute, Mean at Baseline” value ([1]; 300 μg/kg)?
Answer: 1285.5 cells/μL

Question: And the “Subjects with shift, Absolute CD3, H-N” value ([1]; 300 μg/kg, Baseline to Day 8)?
Answer: —

Question: And the “Subjects with shift, Absolute CD3, L-N (low to normal)” value ([1]; 300 μg/kg, Baseline to Day 8)?
Answer: —

Question: What about the “Subjects with shift, Absolute CD3, N-H” value ([1]; 300 μg/kg, Baseline to Day 8) of the same substance?
Answer: —

Question: And the “Subjects with shift, Absolute CD3, N-L (normal to low)” value ([1]; 300 μg/kg, Baseline to Day 8)?
Answer: —

Question: What about the “Subjects with shift, Absolute CD3, H-N” value ([1]; 300 μg/kg, Baseline to Day 20) of the same substance?
Answer: —

Question: And the “Subjects with shift, Absolute CD3, L-N (low to normal)” value ([1]; 300 μg/kg, Baseline to Day 20)?
Answer: —

Question: And the “Subjects with shift, Absolute CD3, N-H” value ([1]; 300 μg/kg, Baseline to Day 20)?
Answer: —

Question: What about the “Subjects with shift, Absolute CD3, N-L (normal to low)” value ([1]; 300 μg/kg, Baseline to Day 20) of the same substance?
Answer: —

Question: What about the “CD3, Absolute, Mean Change from Baseline” value ([1]; 300 μg/kg, Day 3) of the same substance?
Answer: 167.8 cells/μL

Question: And the “CD3, Absolute, Mean Change from Baseline” value ([1]; 300 μg/kg, Day 5)?
Answer: 159.8 cells/μL

Question: What about the “CD3, Absolute, Mean Change from Baseline” value ([1]; 300 μg/kg, Day 7) of the same substance?
Answer: 229.8 cells/μL

Question: And the “CD3, Absolute, Mean Change from Baseline” value ([1]; 300 μg/kg, Day 8)?
Answer: 67.1 cells/μL

Question: What about the “CD3, Absolute, Mean Change from Baseline” value ([1]; 300 μg/kg, Day 11) of the same substance?
Answer: −63.5 cells/μL

Question: What about the “CD3, Absolute, Mean Change from Baseline” value ([1]; 300 μg/kg, Day 14) of the same substance?
Answer: 0.3 cells/μL

Question: And the “CD3, Absolute, Mean Change from Baseline” value ([1]; 300 μg/kg, Day 17)?
Answer: −87.9 cells/μL

Question: And the “CD3, Absolute, Mean Change from Baseline” value ([1]; 300 μg/kg, Day 20)?
Answer: 56.9 cells/μL

Question: And the “CD8, Absolute, Mean at Baseline” value ([2]; 200 μg/kg)?
Answer: 564.6 cells/μL

Question: And the “Subjects with shift, Absolute CD8, H-N (high to normal)” value (shortened to “Subjects with shift, Absolute CD8, H-N”) ([2]; 200 μg/kg, Baseline to Day 8)?
Answer: —

Question: And the “Subjects with shift, Absolute CD8, L-N (low to normal)” value ([2]; 200 μg/kg, Baseline to Day 8)?
Answer: —

Question: And the “Subjects with shift, Absolute CD8, N-H (normal to high)” value (“Subjects with shift, Absolute CD8, N-H” below) ([2]; 200 μg/kg, Baseline to Day 8)?
Answer: 1

Question: What about the “Subjects with shift, Absolute CD8, N-L (normal to low)” value ([2]; 200 μg/kg, Baseline to Day 8) of the same substance?
Answer: —

Question: What about the “Subjects with shift, Absolute CD8, H-N” value ([2]; 200 μg/kg, Baseline to Day 20) of the same substance?
Answer: —

Question: And the “Subjects with shift, Absolute CD8, L-N (low to normal)” value ([2]; 200 μg/kg, Baseline to Day 20)?
Answer: —

Question: And the “Subjects with shift, Absolute CD8, N-H” value ([2]; 200 μg/kg, Baseline to Day 20)?
Answer: —

Question: And the “Subjects with shift, Absolute CD8, N-L (normal to low)” value ([2]; 200 μg/kg, Baseline to Day 20)?
Answer: —

Question: What about the “CD8, Absolute, Mean Change from Baseline” value ([2]; 200 μg/kg, Day 3) of the same substance?
Answer: −34.2 cells/μL

Question: And the “CD8, Absolute, Mean Change from Baseline” value ([2]; 200 μg/kg, Day 5)?
Answer: 31.9 cells/μL

Question: What about the “CD8, Absolute, Mean Change from Baseline” value ([2]; 200 μg/kg, Day 7) of the same substance?
Answer: 0.0 cells/μL

Question: What about the “CD8, Absolute, Mean Change from Baseline” value ([2]; 200 μg/kg, Day 8) of the same substance?
Answer: −3.3 cells/μL

Question: And the “CD8, Absolute, Mean Change from Baseline” value ([2]; 200 μg/kg, Day 17)?
Answer: −52.8 cells/μL

Question: What about the “CD8, Absolute, Mean Change from Baseline” value ([2]; 200 μg/kg, Day 20) of the same substance?
Answer: −31.7 cells/μL

Question: And the “CD8, Absolute, Mean at Baseline” value ([2]; 300 μg/kg)?
Answer: 452.1 cells/μL

Question: What about the “Subjects with shift, Absolute CD8, H-N” value ([2]; 300 μg/kg, Baseline to Day 8) of the same substance?
Answer: —

Question: And the “Subjects with shift, Absolute CD8, L-N (low to normal)” value ([2]; 300 μg/kg, Baseline to Day 8)?
Answer: —

Question: What about the “Subjects with shift, Absolute CD8, N-H” value ([2]; 300 μg/kg, Baseline to Day 8) of the same substance?
Answer: 1

Question: And the “Subjects with shift, Absolute CD8, N-L (normal to low)” value ([2]; 300 μg/kg, Baseline to Day 8)?
Answer: —

Question: And the “Subjects with shift, Absolute CD8, H-N” value ([2]; 300 μg/kg, Baseline to Day 20)?
Answer: —

Question: What about the “Subjects with shift, Absolute CD8, L-N (low to normal)” value ([2]; 300 μg/kg, Baseline to Day 20) of the same substance?
Answer: —

Question: And the “Subjects with shift, Absolute CD8, N-H” value ([2]; 300 μg/kg, Baseline to Day 20)?
Answer: —

Question: What about the “Subjects with shift, Absolute CD8, N-L (normal to low)” value ([2]; 300 μg/kg, Baseline to Day 20) of the same substance?
Answer: —

Question: What about the “CD8, Absolute, Mean Change from Baseline” value ([2]; 300 μg/kg, Day 3) of the same substance?
Answer: 59.5 cells/μL

Question: And the “CD8, Absolute, Mean Change from Baseline” value ([2]; 300 μg/kg, Day 5)?
Answer: 71.0 cells/μL

Question: And the “CD8, Absolute, Mean Change from Baseline” value ([2]; 300 μg/kg, Day 7)?
Answer: 93.6 cells/μL

Question: And the “CD8, Absolute, Mean Change from Baseline” value ([2]; 300 μg/kg, Day 8)?
Answer: 45.1 cells/μL

Question: What about the “CD8, Absolute, Mean Change from Baseline” value ([2]; 300 μg/kg, Day 17) of the same substance?
Answer: −47.3 cells/μL

Question: And the “CD8, Absolute, Mean Change from Baseline” value ([2]; 300 μg/kg, Day 20)?
Answer: 26.8 cells/μL

Question: What about the “12-lead ECG findings” value [3] of the same substance?
Answer: no abnormal CS 12-lead ECGs findings

Reference: patent publication US20090227507A1, “Angiotensin (1-7) Dosage Forms and Uses Thereof” (UNIVERSITY OF SOUTHERN CALIFORNIA, priority 2008, published 2009)
